The species named for the test is Homo sapiens. The test is described as follows: In vitro ability to inhibit arachidonic acid induced platelet aggregation (AAIPA). As to conditions: read-out: I50. Format: functional.

As for `O=C(O)CCc1ccccc1/C=C1/C2CCC(O2)C1c1nc(C(=O)NCCCCC2CCCCC2)co1` (configuration not stated), the IC50 was found to be 12.7 µM.
The same measure for `O=C(O)CCc1ccccc1/C=C1\C2CCC(O2)C1c1nc(C(=O)NCCCCC2CCCCC2)co1` (configuration not stated): 0.008 µM.
